Results as given in paper PMC12123601, “Light-Induced, Lysine-Targeting Irreversible Covalent Inhibition of the Human Oxygen Sensing Hydroxylase Factor Inhibiting HIF (FIH)” (Journal of the American Chemical Society, 2025).
Several values for one entry are separate records, joined by “and”; a condition that tells them apart may be missing. Identical values can stand only once.

Tests used:
FIH = FIH (Homo sapiens, UniProt Q9NWT6); test: Intact protein mass analysis of FIH treated with compound; type: binding; conditions: FIH 5 μM, compound 50 μM
Procedure: 3 (A) Intact protein mass analysis of FIH (5 μM) and FIH (5 μM) treated with NBA-ZG-2291 (50 μM) without irradiation. (B) Crystal structure view of FIH in complex with NBA-ZG-2291 without irradiation. (C) Superimposition of the crystal structure FIH in complex with NBA-ZG-2291 (green) (PDB ID: 9I4H) and that in complex with ZG-2291 (pink) (PDB ID: 8II0 ). (D) Intact protein mass analysis of FIH (5 μM) and FIH (5 μM) treated with NBA-ZG-2291 (50 μM) followed by 30 min of irradiation (365 nm, 16 W). (E) Predicted covalent binding mode of NBA-ZG-2291 with FIH.
Subsequently, we verified the covalent reaction of NBA-ZG-2291 and FIH with irradiation in solution using, intact protein mass analyzes.
3.4 Intact protein mass spectrometry
Purified FIH (5 μM final) was incubated with Lys-1 at 50 μM in 50 mM Tris pH 7.5, 50 μM MnCl2 in a total volume of 100 μL.
All experiments were incubated at 25 ℃ for 1 h, then with or without irradiation at 365 nm for 30 min. […]
The process of customizing non-standard residues (NBA-ZG-2291 modified Lys106) in the amber14sb force field involved the following steps: First, the molecular structure of NBA-ZG-2291 was obtained and its topology was generated. […] The molecular charges were then calculated using the RESP method, and the topology file was updated with these charge values. […]

HIF-1α and HIF-2α = test: Western blotting of HIF-1α and HIF-2α protein levels in Hep3B cells; type: cell-based
Procedure: To investigate potential cellular target engagement of NBA-ZG-2291 with FIH, we performed a time-dependent cellular thermal shift assay (CETSA) using Hep3B cells. The results imply that, after 30 min of light activation (365 nm, 16 W), NBA-ZG-2291 effectively stabilizes FIH with a ΔT m of about 9 °C after incubation for 12–48 h (Figure A), indicating sustained engagement with FIH. […] We also performed Western blotting to examine the protein levels of both HIF-1α and HIF-2α in control and NBA-ZG-2291-treated Hep3B cells.

Hep3B cells = test: Whole-genome RNA sequencing of treated Hep3B cells; type: cell-based; conditions: replicates B1, B2
Procedure: To confirm whether the effects of NBA-ZG-2291 on gene expression are FIH-dependent, we knocked down FIH using siRNA and compared the impact of NBA-ZG-2291 treatment and FIH knockdown (siFIH) on gene expression in Hep3B cells. Whole-genome expression profiling analysis was conducted in NBA-ZG-2291-treated Hep3B cells and FIH knockdown Hep3B cells, with DMSO-treated Hep3B cells serving as controls.

FIH, sequence (Q9NWT6 whole entry): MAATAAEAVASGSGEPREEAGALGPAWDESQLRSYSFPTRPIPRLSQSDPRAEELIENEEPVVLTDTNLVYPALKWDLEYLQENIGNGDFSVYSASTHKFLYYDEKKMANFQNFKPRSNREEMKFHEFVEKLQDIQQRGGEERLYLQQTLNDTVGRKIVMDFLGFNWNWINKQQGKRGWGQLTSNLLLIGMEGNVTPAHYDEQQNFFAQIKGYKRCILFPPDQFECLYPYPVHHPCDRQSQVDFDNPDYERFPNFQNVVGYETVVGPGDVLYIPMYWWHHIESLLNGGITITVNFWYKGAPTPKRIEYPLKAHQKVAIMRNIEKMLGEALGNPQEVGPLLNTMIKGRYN

## O=C(O)CNC(=O)c1ncc(-c2cc(-c3ccc(CO)c([N+](=O)[O-])c3)no2)cc1O [NBA-ZG-2291]
FIH; 30 min light activation (365 nm, 16 W)
  Covalent adduct with FIH by intact protein MS: a new peak with the anticipated mass shift corresponding to covalent reaction was detected
FIH; absence of irradiation
  Covalent adduct with FIH by intact protein MS: failed to detect the covalent adducts
HIF-1α and HIF-2α
  Protein levels of HIF-1α and HIF-2α: did not significantly alter the levels of either HIF-1α or HIF-2α
Hep3B cells
  DPM1 expression (whole-genome RNA sequencing): 3.9965 and 3.239
  SCYL3 expression (whole-genome RNA sequencing): 0.949 and 1.202
  TNMD expression (whole-genome RNA sequencing): 0
  TSPAN6 expression (whole-genome RNA sequencing): 7.032 and 6.946
